Measurements published in paper PMC12217463, “Functional and structural analyses of amino acid sequence variation in PDC β-lactamase reveal different mechanistic pathways toward cefiderocol resistance in Pseudomonas aeruginosa” (Antimicrobial Agents and Chemotherapy, 2025).
≈ marks a conversion by molar mass, not a printed value.

Key:
[1] = system: PAO1 producing the Ω-loop variants ∆P215-G222, E219K, and F121L + E219K; assay: MIC, group of Ω-loop variants in PAO1; assay type: cell-based; conditions: Pseudomonas aeruginosa; range over PAO1 producing ∆P215-G222, E219K and F121L + E219K
From the text: (§1) We took advantage of a previously constructed and characterized laboratory collection of recombinant P. aeruginosa PAO1 isolates expressing different blaPDC variants, but specifically enriched for this work with additional variants, following the previously described methodology ([17]). […] The final collection comprised 40 recombinant isolates (20 in PAO1 and 20 in PAO ΔpiuC) producing the wild-type PDC-1 variant from PAO1 and 19 derivatives carrying specific amino acid substitutions previously associated with the development of resistance to ceftazidime/avibactam, ceftolozane/tazobactam, or cefiderocol: T70I, F121L, P153L, G156D, A200T, G202S, ΔG202-E219, G214R, P215L, P215S, ΔP215-G222, D217N, E219K, E219G, E219D, S226ins, L293P, F121L + E219K, and F121L + G222S.
(§2) The MICs of ceftazidime, ceftazidime/avibactam, ceftolozane/tazobactam, cefepime, and cefiderocol were determined in triplicate, for all isolates, by reference broth microdilution assays. Avibactam and tazobactam were fixed at 4 mg/L. All assays were performed using cation-adjusted Mueller-Hinton broth (CAMHB), except for cefiderocol, which was determined in all cases using iron-depleted CAMHB, prepared according to CLSI M100 guidelines ([40]). EUCAST v.15.0 clinical breakpoints and guidelines (http://www.eucast.org/clinical_breakpoints/) were used for reference purposes. […]

PDC L293P = PDC L293P (Pseudomonas aeruginosa, UniProt P24735, L320P); assay: Steady-state kinetics of purified β-lactamase; conditions: for kcat: direct hydrolysis at substrate concentration at least three times the Km
PDC E219K = PDC E219K (Pseudomonas aeruginosa, UniProt P24735, E247K); assay: Steady-state kinetics of purified β-lactamase; conditions: for kcat: direct hydrolysis at substrate concentration at least three times the Km; for Ratio for PDC E219K/PDC-1: ratio of kcat/Km (fold change in catalytic efficiency)
PAO ΔpiuC = assay: Cefiderocol MIC, iron uptake-deficient host; assay type: cell-based; conditions: Pseudomonas aeruginosa
From the text: as §1
(§3) The MICs of ceftazidime, ceftazidime/avibactam, ceftolozane/tazobactam, cefepime, and cefiderocol were determined in triplicate, for all isolates, by reference broth microdilution assays. Avibactam and tazobactam were fixed at 4 mg/L. All assays were performed using cation-adjusted Mueller-Hinton broth (CAMHB), except for cefiderocol, which was determined in all cases using iron-depleted CAMHB, prepared according to CLSI M100 guidelines ([40]). EUCAST v.15.0 clinical breakpoints and guidelines (http://www.eucast.org/clinical_breakpoints/) were used for reference purposes. Reference strains Escherichia coli ATCC 25922, Klebsiella pneumoniae ATCC 700603, and P. aeruginosa ATCC 27853 were used as controls.

[2] = system: PAO ΔpiuC producing PDC F121L + E219K; assay: Cefiderocol MIC, iron uptake-deficient host; assay type: cell-based; conditions: Pseudomonas aeruginosa
From the text: as §1, §3

[3] = system: PAO ΔpiuC producing PDC F121L; assay: Cefiderocol MIC, iron uptake-deficient host; assay type: cell-based; conditions: Pseudomonas aeruginosa
From the text: as §1, §3

[4] = system: PAO ΔpiuC producing PDC E219K; assay: Cefiderocol MIC, iron uptake-deficient host; assay type: cell-based; conditions: Pseudomonas aeruginosa
From the text: as §1, §3

[5] = system: PAO ΔpiuC producing PDC D217N; assay: Cefiderocol MIC, iron uptake-deficient host; assay type: cell-based; conditions: Pseudomonas aeruginosa
From the text: as §1, §3

[6] = system: PAO ΔpiuC producing PDC E219G; assay: Cefiderocol MIC, iron uptake-deficient host; assay type: cell-based; conditions: Pseudomonas aeruginosa
From the text: as §1, §3

[7] = system: PAO ΔpiuC producing PDC T70I; assay: Cefiderocol MIC, iron uptake-deficient host; assay type: cell-based; conditions: Pseudomonas aeruginosa
From the text: as §1, §3

[8] = system: PAO ΔpiuC producing PDC S226ins; assay: Cefiderocol MIC, iron uptake-deficient host; assay type: cell-based; conditions: Pseudomonas aeruginosa
From the text: as §1, §3

[9] = system: PAO ΔpiuC producing PDC G214R; assay: Cefiderocol MIC, iron uptake-deficient host; assay type: cell-based; conditions: Pseudomonas aeruginosa
From the text: as §1, §3

[10] = system: PAO ΔpiuC producing PDC L293P; assay: Cefiderocol MIC, iron uptake-deficient host; assay type: cell-based; conditions: Pseudomonas aeruginosa
From the text: as §1, §3

[11] = system: PAO ΔpiuC producing PDC F121L + G220S; assay: Cefiderocol MIC, iron uptake-deficient host; assay type: cell-based; conditions: Pseudomonas aeruginosa
From the text: as §1, §3

[12] = system: PAO ΔpiuC producing PDC P153L; assay: Cefiderocol MIC, iron uptake-deficient host; assay type: cell-based; conditions: Pseudomonas aeruginosa
From the text: as §1, §3

[13] = system: PAO ΔpiuC producing PDC A200T; assay: Cefiderocol MIC, iron uptake-deficient host; assay type: cell-based; conditions: Pseudomonas aeruginosa
From the text: as §1, §3

[14] = system: PAO ΔpiuC producing PDC P215S; assay: Cefiderocol MIC, iron uptake-deficient host; assay type: cell-based; conditions: Pseudomonas aeruginosa
From the text: as §1, §3

[15] = system: PAO ΔpiuC producing PDC E219D; assay: Cefiderocol MIC, iron uptake-deficient host; assay type: cell-based; conditions: Pseudomonas aeruginosa
From the text: as §1, §3

[16] = system: PAO ΔpiuC producing PDC G156D; assay: Cefiderocol MIC, iron uptake-deficient host; assay type: cell-based; conditions: Pseudomonas aeruginosa
From the text: as §1, §3

[17] = system: PAO ΔpiuC producing PDC ∆G202-E219; assay: Cefiderocol MIC, iron uptake-deficient host; assay type: cell-based; conditions: Pseudomonas aeruginosa
From the text: as §1, §3

[18] = system: PAO ΔpiuC producing PDC ∆P215-G222; assay: Cefiderocol MIC, iron uptake-deficient host; assay type: cell-based; conditions: Pseudomonas aeruginosa
From the text: as §1, §3

[19] = system: PAO ΔpiuC producing PDC-1 (WT); assay: Cefiderocol MIC, iron uptake-deficient host; assay type: cell-based; conditions: Pseudomonas aeruginosa
From the text: as §1, §3

[20] = system: PAO ΔpiuC producing PDC G202S; assay: Cefiderocol MIC, iron uptake-deficient host; assay type: cell-based; conditions: Pseudomonas aeruginosa
From the text: as §1, §3

[21] = system: PAO ΔpiuC producing PDC P215L; assay: Cefiderocol MIC, iron uptake-deficient host; assay type: cell-based; conditions: Pseudomonas aeruginosa
From the text: as §1, §3

[22] = system: E. cloacae AmpC variant with a ∆A294-P295 deletion; design: method as in PMID 32284381; conditions: relative to the parent enzyme; cited from earlier work
PDC-1 (WT) = PDC-1 (WT) (Pseudomonas aeruginosa, UniProt P24735); assay: Steady-state kinetics of purified β-lactamase
[23] = system: E219K or L293P substitutions combined with inactivating mutations affecting iron uptake (∆piuC); assay: MIC, E219K or L293P with impaired iron uptake; assay type: cell-based; conditions: Pseudomonas aeruginosa
From the text: as §1, §2

[24] = system: PAO ΔpiuC producing the ∆P215-G222, E219K, F121L + E219K, and L293P variants; assay: MIC, group of variants in PAO ΔpiuC; assay type: cell-based; conditions: Pseudomonas aeruginosa
From the text: as §1, §2

[25] = system: PAO1 + blaPDC F121L + G220S; assay: MIC, broth microdilution; assay type: cell-based; conditions: Pseudomonas aeruginosa
[26] = system: P. aeruginosa isolates overproducing PDC variants; conditions: clinical strains, values generally remain below; cited from earlier work

CC(C)(O/N=C(\C(=O)N[C@@H]1C(=O)N2C(C(=O)[O-])=C(C[N+]3(CCNC(=O)c4ccc(O)c(O)c4Cl)CCCC3)CS[C@H]12)c1csc(N)n1)C(=O)O [FDC, cefiderocol]
MIC [1]: 2 to 4 µg/mL
improvement in substrate binding affinity (Km decrease) (PDC L293P; PDC L293P relative to PDC-1): ≈ 32 fold
Km (PDC L293P; PDC L293P, antibiotics: determined as Ki app with nitrocefin as reporter substrate, 10 mM PBS, pH 7.4, room temperature): 2.69 ± 0.1 µM
kcat (PDC L293P; PDC L293P, 10 mM PBS, pH 7.4, room temperature, listed as Cefiderocol): 0.0036 ± 0.0001 s⁻¹
kcat (PDC L293P; PDC L293P, 10 mM PBS, pH 7.4, room temperature, listed as cefiderocol): 0.0036 s⁻¹
Ratio for PDC L293P/PDC-1 (PDC L293P; ratio of kcat/Km (fold change in catalytic efficiency)): 33.75
increase in kcat values (PDC E219K; PDC E219K relative to PDC-1): ≈ 125 fold
Km (PDC E219K; PDC E219K, antibiotics: determined as Ki app with nitrocefin as reporter substrate, 10 mM PBS, pH 7.4, room temperature): 466 ± 120 µM
kcat (PDC E219K; PDC E219K, 10 mM PBS, pH 7.4, room temperature, listed as Cefiderocol): 0.45 ± 0.03 s⁻¹
kcat (PDC E219K; PDC E219K, 10 mM PBS, pH 7.4, room temperature, listed as cefiderocol): 0.45 s⁻¹
Ratio for PDC E219K/PDC-1 (PDC E219K; listed as Cefiderocol): 24.00
Ratio for PDC E219K/PDC-1 (PDC E219K; listed as cefiderocol): ≈ 24
MIC (PAO ΔpiuC): 2 µg/mL (≈ 2.66 µM)
MIC [2]: 64 µg/mL (≈ 85.1 µM)
MIC [3]: 8 µg/mL (≈ 10.6 µM)
MIC [4]: 32 µg/mL (≈ 42.5 µM)
MIC [5]: 8 µg/mL (≈ 10.6 µM)
MIC [6]: 8 µg/mL (≈ 10.6 µM)
MIC [7]: 8 µg/mL (≈ 10.6 µM)
MIC [8]: 8 µg/mL (≈ 10.6 µM)
MIC [9]: 16 µg/mL (≈ 21.3 µM)
MIC [10]: 32 µg/mL (≈ 42.5 µM)
MIC [11]: 8 µg/mL (≈ 10.6 µM)
MIC [12]: 8 µg/mL (≈ 10.6 µM)
MIC [13]: 8 µg/mL (≈ 10.6 µM)
MIC [14]: 8 µg/mL (≈ 10.6 µM)
MIC [15]: 8 µg/mL (≈ 10.6 µM)
MIC [16]: 8 µg/mL (≈ 10.6 µM)
MIC [17]: 8 µg/mL (≈ 10.6 µM)
MIC [18]: 32 µg/mL (≈ 42.5 µM)
MIC [19]: 4 µg/mL (≈ 5.32 µM)
MIC [20]: 8 µg/mL (≈ 10.6 µM)
MIC [21]: 8 µg/mL (≈ 10.6 µM)
increase in catalytic efficiency [22]: ≈ 19 fold
kcat (PDC-1 (WT); PDC-1 (WT), direct hydrolysis at substrate concentration at least three times the Km, 10 mM PBS, pH 7.4, room temperature): 0.0036 s⁻¹
Ratio (PDC-1 (WT); kcat/Km relative to PDC-1 (reference = 1)): 1
MIC [23]: ≥ 32 µg/mL
MIC [24]: 32 to 64 µg/mL (≈ 42.5 to 85.1 µM)
MIC [25]: 0.25 µg/mL (≈ 0.332 µM)
MIC [26]: below 2 mg/L
